Data published in patent US10294202B2, “Pyrrolidinones as herbicides” (FMC Corporation, priority 2013, dated 2019).

What was measured:
[1] = system: pigweed; assay: Test A pre-/postemergence herbicide test; type: in vivo, Amaranthus retroflexus
Procedure, shortened: (§1)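 Approximately 10 days after treatment in the greenhouse, plants were compared with untreated controls and given a 0–100 visual injury rating. Applications: preemergence directed soil spray; postemergence on 2–10 cm plants at the one- to two-leaf stage.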

[2] = system: giant foxtail; assay: Test A pre-/postemergence herbicide test; type: in vivo, Setaria faberii
Procedure, shortened: as §1

[3] = system: barnyardgrass; assay: Test A pre-/postemergence herbicide test; type: in vivo, Echinochloa crus-galli
Procedure, shortened: as §1

[4] = system: foxtail, giant; assay: Test C pre-/postemergence herbicide test; type: in vivo, Setaria faberii
Procedure, shortened: (§2)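 Plants grown and held in a greenhouse for 13 to 15 days post-spray, then rated 0–100 by visual comparison with controls. Pre treatments targeted seeds in loam and sand; post treatments targeted 1- to 4-leaf plants in peat-based potting medium.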

[5] = system: velvetleaf; assay: Test C pre-/postemergence herbicide test; type: in vivo, Abutilon theophrasti
Procedure, shortened: as §2

[6] = system: johnsongrass; assay: Test C pre-/postemergence herbicide test; type: in vivo, Sorghum halepense
Procedure, shortened: as §2

[7] = system: nutsedge, yellow; assay: Test C pre-/postemergence herbicide test; type: in vivo, Cyperus esculentus
Procedure, shortened: as §2

[8] = system: corn; assay: Test A pre-/postemergence herbicide test; type: in vivo, Zea mays; conditions: Postemergence
Procedure, shortened: as §1

[9] = system: rice; assay: Test B flooded paddy test; type: in vivo, Oryza sativa; conditions: 500 g ai/ha, Flood; scale of 0 to 100 where 0 is no effect and 100 is complete control
Procedure, shortened: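 Plants were grown to the 2-leaf stage, then pots were flooded to 3 cm above the soil and compound was applied directly into the paddy water, with that depth held throughout. After 13 to 15 days in a greenhouse, injury was rated visually against untreated controls on a 0 to 100 scale (100 = complete control).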

[10] = system: blackgrass; assay: Test C pre-/postemergence herbicide test; type: in vivo, Alopecurus myosuroides
Procedure, shortened: as §2

[11] = system: oilseed rape; assay: Test C pre-/postemergence herbicide test; type: in vivo, Brassica napus
Procedure, shortened: as §2

[12] = Postemergence, 125 g ai/ha, visual rating on 0 to 100 scale (0 no effect, 100 complete control), approx. 10 days
[13] = Postemergence, 500 g ai/ha, 0 to 100 scale (0 no effect, 100 complete control)
[14] = Preemergence, 125 g ai/ha, 0 to 100 scale where 0 is no effect and 100 is complete control
[15] = preemergence, 500 g ai/ha, 0 to 100 scale, 0 is no effect and 100 is complete control
[16] = Postemergence, 125 g ai/ha, 0 to 100 scale, 0 is no effect, 100 is complete control
[17] = Postemergence, 16 g ai/ha, scale 0 to 100 (0 no effect, 100 complete control)
[18] = Postemergence, 31 g ai/ha, scale 0 to 100 (0 no effect, 100 complete control)
[19] = Postemergence, 62 g ai/ha, scale 0 (no effect) to 100 (complete control)
[20] = Postemergence, 125 g ai/ha, scale 0 to 100 (0 no effect, 100 complete control)
[21] = Preemergence, 31 g ai/ha, scale 0 to 100, 0 is no effect and 100 is complete control
[22] = Preemergence, 62 g ai/ha, scale 0 to 100 (0 no effect, 100 complete control)
[23] = Preemergence, 125 g ai/ha, scale 0 to 100 (0 no effect, 100 complete control)
[24] = Preemergence, 16 g ai/ha, scale 0 to 100
[25] = 500 g ai/ha, 0 to 100 scale (0 no effect, 100 complete control)
[26] = Preemergence, 500 g ai/ha, visual rating on 0 to 100 scale (0 no effect, 100 complete control)
[27] = Postemergence, 250 g ai/ha, scale 0 to 100 (0 no effect, 100 complete control)

CN1CC(c2cccc(C(F)(F)F)c2)C(C(=O)Nc2ccccc2F)C1=O (stereo not drawn) [Compound 277]
30: Plant response rating, Pigweed [1, 12] | Plant response rating, Pigweed [1, 13] | Plant response rating, Pigweed [1, 15]
15: Plant response rating, Velvetleaf [5, 20]
65: Johnsongrass plant response rating [6, 22]
70: Blackgrass plant response rating [10, 21] | Blackgrass plant response rating [10, 22]
98: Foxtail, Giant plant response rating [4, 21] | Foxtail, Giant plant response rating [4, 22] | Plant response rating, Foxtail, Giant [4, 23]
95: Plant response rating, Foxtail, Giant [4, 24]
40: Johnsongrass plant response rating [6, 21] | Plant response rating, Blackgrass [10, 24]
0: Plant response rating, Foxtail, Giant [4, 17] | Plant response rating, Velvetleaf [5, 17] | Plant response rating, Velvetleaf [5, 18] | Plant response rating, Velvetleaf [5, 19] | Velvetleaf plant response rating [5, 21] | Velvetleaf plant response rating [5, 22] | Plant response rating, Velvetleaf [5, 24] | Plant response rating, Johnsongrass [6, 17] | Plant response rating, Johnsongrass [6, 18] | Plant response rating, Johnsongrass [6, 19] | Plant response rating, Johnsongrass [6, 24] | Plant response rating, Nutsedge, Yellow [7, 17] | Plant response rating, Nutsedge, Yellow [7, 19] | Plant response rating, Nutsedge, Yellow [7, 20] | Nutsedge, Yellow plant response rating [7, 21] | Plant response rating, Nutsedge, Yellow [7, 24] | Plant response rating, Rice [9] | Plant response rating, Blackgrass [10, 17] | Plant response rating, Blackgrass [10, 18] | Plant response rating, Blackgrass [10, 19] | Plant response rating, Blackgrass [10, 20] | Plant response rating, Oilseed Rape [11, 17] | Plant response rating, Oilseed Rape [11, 18] | Plant response rating, Oilseed Rape [11, 19] | Plant response rating, Oilseed Rape [11, 20] | Oilseed Rape plant response rating [11, 21] | Oilseed Rape plant response rating [11, 22] | Plant response rating, Oilseed Rape [11, 24]
80: Plant response rating, Oilseed Rape [11, 23]
10: Plant response rating, Foxtail, Giant [4, 18] | Plant response rating, Johnsongrass [6, 20] | Plant response rating, Nutsedge, Yellow [7, 18]
90: Plant response rating, Foxtail, Giant [2, 16] | Plant response rating, Foxtail, Giant [2, 13] | Plant response rating, Foxtail, Giant [2, 14] | Plant response rating, Foxtail, Giant [2, 15] | Plant response rating, Barnyardgrass [3, 16] | Plant response rating, Barnyardgrass [3, 13] | Plant response rating, Barnyardgrass [3, 14] | Plant response rating, Barnyardgrass [3, 15] | Plant response rating, Corn ([8]; 125 g ai/ha, 0 to 100 scale, 0 is no effect, 100 is complete control) | Plant response rating, Corn [8, 25] | Plant response rating, Blackgrass [10, 23]
20: Plant response rating, Pigweed [1, 14] | Nutsedge, Yellow plant response rating [7, 22] | Plant response rating, Nutsedge, Yellow [7, 23]
85: Plant response rating, Foxtail, Giant [4, 19] | Plant response rating, Foxtail, Giant [4, 20] | Plant response rating, Johnsongrass [6, 23]
35: Plant response rating, Velvetleaf [5, 23]

CN1CC(c2ccc(F)c(F)c2)C(C(=O)Nc2ccccc2F)C1=O (stereo not drawn) [Compound 302]
80: Plant response rating, Foxtail, Giant [2, 12] | Plant response rating, Foxtail, Giant [2, 13] | Plant response rating, Foxtail, Giant [4, 20] | Plant response rating, Foxtail, Giant [4, 27]
45: Plant response rating, Foxtail, Giant [4, 19] | Plant response rating, Johnsongrass [6, 23]
60: Pigweed plant response rating [1, 26] | Plant response rating, Blackgrass [10, 23]
90: Plant response rating, Foxtail, Giant [2, 14] | Foxtail, Giant plant response rating [2, 26] | Plant response rating, Barnyardgrass [3, 12] | Plant response rating, Barnyardgrass [3, 13] | Plant response rating, Barnyardgrass [3, 14] | Barnyardgrass plant response rating [3, 26] | Foxtail, Giant plant response rating [4, 21]
5: Plant response rating, Blackgrass [10, 27]
15: Johnsongrass plant response rating [6, 22]
100: Plant response rating, Foxtail, Giant [4, 23] | Plant response rating (scale of 0 to 100), Foxtail, Giant ([4]; Preemergence, 250 g ai/ha)
85: Plant response rating (scale of 0 to 100), Blackgrass ([10]; Preemergence, 250 g ai/ha)
95: Foxtail, Giant plant response rating [4, 22]
65: Plant response rating (scale of 0 to 100), Johnsongrass ([6]; Preemergence, 250 g ai/ha)
40: Plant response rating, Corn [8, 25] | Plant response rating, Oilseed Rape [11, 20]
20: Plant response rating, Velvetleaf [5, 27] | Plant response rating, Nutsedge, Yellow [7, 27]
10: Plant response rating, Pigweed [1, 13] | Plant response rating, Pigweed [1, 14] | Plant response rating, Johnsongrass [6, 27] | Plant response rating (scale of 0 to 100), Nutsedge, Yellow ([7]; Preemergence, 250 g ai/ha) | Plant response rating (scale of 0 to 100), Oilseed Rape ([11]; Preemergence, 250 g ai/ha)
0: Plant response rating, Pigweed [1, 12] | Plant response rating, Foxtail, Giant [4, 18] | Plant response rating, Velvetleaf [5, 18] | Plant response rating, Velvetleaf [5, 19] | Plant response rating, Velvetleaf [5, 20] | Velvetleaf plant response rating [5, 21] | Velvetleaf plant response rating [5, 22] | Plant response rating, Velvetleaf [5, 23] | Plant response rating (scale of 0 to 100), Velvetleaf ([5]; Preemergence, 250 g ai/ha) | Plant response rating, Johnsongrass [6, 18] | Plant response rating, Johnsongrass [6, 19] | Plant response rating, Johnsongrass [6, 20] | Johnsongrass plant response rating [6, 21] | Plant response rating, Nutsedge, Yellow [7, 18] | Plant response rating, Nutsedge, Yellow [7, 19] | Plant response rating, Nutsedge, Yellow [7, 20] | Nutsedge, Yellow plant response rating [7, 21] | Nutsedge, Yellow plant response rating [7, 22] | Plant response rating, Nutsedge, Yellow [7, 23] | Plant response rating, Corn ([8]; 125 g ai/ha, visual rating on 0 to 100 scale (0 no effect, 100 complete control), approx. 10 days) | Plant response rating, Rice [9] | Plant response rating, Blackgrass [10, 18] | Plant response rating, Blackgrass [10, 19] | Plant response rating, Blackgrass [10, 20] | Blackgrass plant response rating [10, 21] | Plant response rating, Oilseed Rape [11, 18] | Plant response rating, Oilseed Rape [11, 19] | Plant response rating, Oilseed Rape [11, 27] | Oilseed Rape plant response rating [11, 21] | Oilseed Rape plant response rating [11, 22] | Plant response rating, Oilseed Rape [11, 23]
30: Blackgrass plant response rating [10, 22]
